One experiment deals with NCI-H929. Briefly: Inhibition of cell proliferation (CellTiter-Glo or InCell analyzer), NCI-H929. In kind it is cell-based. The following applies: Homo sapiens, 72 h / 3 days, values given as IC50 category. In a few lines:
In one
In general terms: Cellular ATP, detected with luciferase, serves as a proxy for viable cell number.

The test system of the next experiment is Colo205. Briefly: Inhibition of cell proliferation (CellTiter-Glo or InCell analyzer), Colo205. In kind it is cell-based. The settings on record: Homo sapiens, COLO 205, 72 h / 3 days, values given as IC50 category. In a few lines:
In one

The target in experiment [1] is T1, NIH-3T3 cells overexpressing human IGF-1R (Homo sapiens, UniProt P08069).
T1 construct: expressed in transfected cells; host or cells: NIH-3T3 (mouse fibroblasts)
Briefly: IGF-1R cellular autophosphorylation (DELFIA). The class given is cell-based. In a few lines:
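Receptor autophosphorylation measured by DELFIA, capturing IGF-1R or IRβ and detecting with europium anti-pTyr, reported as percent of IGF-1- or insulin-stimulated signal. Compounds (30 uM to 1.5 nM) added 2 h before ligand, then 15 min stimulation (IGF-1 30 ng/ml or insulin 3 ug/ml).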

Another experiment addresses ALK (Homo sapiens, UniProt Q9UM73). Briefly: ALK enzyme assay (HTRF). In kind it is biochemical. The following applies: 0.25 nM ALK, 15.0 μM ATP, values given as pIC50 category. A digest of the protocol:
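Final compound range 0.00017 to 10 μM (twelve 1:3 dilutions). Kinase reaction with ATP and biotinylated synthetic peptide runs 120 min at 20° C, stopped with EDTA; phosphotyrosine detected by HTRF after 60 min. Inhibition referenced to DMSO (1%) and EDTA (0.1 M) controls, curve-fitted.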
In general terms: TR-FRET usually uses a lanthanide donor and a delayed reading to cut background.

SMILES strings stand for the structures. Where only a bound is given, the exact number is not on record here.

T1 sequence (P08069 31-1367): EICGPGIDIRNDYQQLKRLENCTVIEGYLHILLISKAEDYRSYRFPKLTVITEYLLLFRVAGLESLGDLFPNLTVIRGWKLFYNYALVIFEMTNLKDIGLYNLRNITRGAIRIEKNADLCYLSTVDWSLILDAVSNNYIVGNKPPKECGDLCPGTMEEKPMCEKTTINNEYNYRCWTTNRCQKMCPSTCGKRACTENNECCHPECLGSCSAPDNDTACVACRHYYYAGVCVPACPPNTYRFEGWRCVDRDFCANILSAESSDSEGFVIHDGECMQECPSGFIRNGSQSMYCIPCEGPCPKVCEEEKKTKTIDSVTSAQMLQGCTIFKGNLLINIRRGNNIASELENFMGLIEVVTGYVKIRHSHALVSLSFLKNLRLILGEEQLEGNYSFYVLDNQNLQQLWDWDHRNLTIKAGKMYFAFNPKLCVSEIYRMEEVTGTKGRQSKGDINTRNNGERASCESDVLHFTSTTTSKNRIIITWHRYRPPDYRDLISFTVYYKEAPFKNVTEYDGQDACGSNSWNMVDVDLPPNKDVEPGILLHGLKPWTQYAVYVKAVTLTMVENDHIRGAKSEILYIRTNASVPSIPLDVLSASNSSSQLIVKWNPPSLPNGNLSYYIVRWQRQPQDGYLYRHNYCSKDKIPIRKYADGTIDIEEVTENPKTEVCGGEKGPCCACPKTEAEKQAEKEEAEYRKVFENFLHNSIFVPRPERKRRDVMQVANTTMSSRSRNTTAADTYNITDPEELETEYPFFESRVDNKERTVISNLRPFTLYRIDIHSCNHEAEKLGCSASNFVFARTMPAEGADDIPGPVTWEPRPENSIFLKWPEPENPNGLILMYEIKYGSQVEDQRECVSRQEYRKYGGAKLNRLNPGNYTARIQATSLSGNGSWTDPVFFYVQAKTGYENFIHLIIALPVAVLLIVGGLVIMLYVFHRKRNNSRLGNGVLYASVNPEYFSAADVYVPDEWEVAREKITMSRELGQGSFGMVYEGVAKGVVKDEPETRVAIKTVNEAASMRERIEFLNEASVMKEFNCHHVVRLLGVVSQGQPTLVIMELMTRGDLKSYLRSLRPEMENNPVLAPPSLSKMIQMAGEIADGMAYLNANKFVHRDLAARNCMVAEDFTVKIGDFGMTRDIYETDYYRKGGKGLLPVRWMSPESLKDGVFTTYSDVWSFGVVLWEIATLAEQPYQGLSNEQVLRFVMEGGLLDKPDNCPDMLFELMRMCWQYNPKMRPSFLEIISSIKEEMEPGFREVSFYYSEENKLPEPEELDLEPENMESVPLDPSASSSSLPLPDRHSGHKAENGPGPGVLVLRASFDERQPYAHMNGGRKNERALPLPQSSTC
Chain of ALK (Q9UM73 19-1620): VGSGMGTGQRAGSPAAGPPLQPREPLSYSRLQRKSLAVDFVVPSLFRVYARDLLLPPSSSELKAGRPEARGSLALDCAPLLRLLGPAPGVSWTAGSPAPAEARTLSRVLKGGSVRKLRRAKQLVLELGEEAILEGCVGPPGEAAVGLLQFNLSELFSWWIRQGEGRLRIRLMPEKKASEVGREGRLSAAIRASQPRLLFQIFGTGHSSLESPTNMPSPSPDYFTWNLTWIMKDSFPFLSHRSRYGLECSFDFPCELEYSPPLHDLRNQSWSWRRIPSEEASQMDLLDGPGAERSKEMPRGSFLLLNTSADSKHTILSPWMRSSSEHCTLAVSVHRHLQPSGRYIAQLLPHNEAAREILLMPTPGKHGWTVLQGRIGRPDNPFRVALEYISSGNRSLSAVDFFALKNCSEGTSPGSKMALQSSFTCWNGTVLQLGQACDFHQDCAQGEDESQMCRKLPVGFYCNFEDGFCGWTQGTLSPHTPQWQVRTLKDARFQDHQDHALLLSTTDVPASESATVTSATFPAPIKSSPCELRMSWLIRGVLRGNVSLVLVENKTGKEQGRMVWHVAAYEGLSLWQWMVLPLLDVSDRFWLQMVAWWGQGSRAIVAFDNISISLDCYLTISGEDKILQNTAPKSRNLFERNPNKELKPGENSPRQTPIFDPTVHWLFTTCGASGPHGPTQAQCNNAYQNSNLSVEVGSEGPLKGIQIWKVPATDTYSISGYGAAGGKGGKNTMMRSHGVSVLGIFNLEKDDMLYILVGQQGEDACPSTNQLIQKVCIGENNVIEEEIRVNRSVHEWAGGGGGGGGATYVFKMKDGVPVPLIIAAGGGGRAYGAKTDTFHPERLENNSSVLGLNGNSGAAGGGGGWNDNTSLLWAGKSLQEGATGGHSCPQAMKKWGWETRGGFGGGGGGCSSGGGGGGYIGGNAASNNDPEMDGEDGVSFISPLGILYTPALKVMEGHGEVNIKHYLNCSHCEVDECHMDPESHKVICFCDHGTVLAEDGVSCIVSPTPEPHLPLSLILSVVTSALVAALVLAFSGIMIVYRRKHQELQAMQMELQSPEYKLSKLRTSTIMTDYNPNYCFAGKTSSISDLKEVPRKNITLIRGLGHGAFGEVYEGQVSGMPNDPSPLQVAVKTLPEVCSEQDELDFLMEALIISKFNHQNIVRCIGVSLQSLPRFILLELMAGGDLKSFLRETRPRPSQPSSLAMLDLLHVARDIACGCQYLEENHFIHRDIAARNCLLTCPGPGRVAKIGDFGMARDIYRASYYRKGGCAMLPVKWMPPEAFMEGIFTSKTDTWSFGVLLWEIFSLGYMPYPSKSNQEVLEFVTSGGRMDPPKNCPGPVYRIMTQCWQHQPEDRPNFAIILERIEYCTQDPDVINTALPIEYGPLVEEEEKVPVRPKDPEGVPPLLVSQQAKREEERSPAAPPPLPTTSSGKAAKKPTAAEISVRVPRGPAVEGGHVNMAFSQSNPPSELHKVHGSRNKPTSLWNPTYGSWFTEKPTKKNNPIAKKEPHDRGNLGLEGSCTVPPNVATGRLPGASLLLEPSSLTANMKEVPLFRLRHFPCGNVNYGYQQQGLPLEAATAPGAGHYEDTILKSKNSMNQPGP

Usually IC50 stands for the concentration that gives 50% inhibition. The low end stands for greater potency, the high end for weaker potency. Turning to `CCCN1CCC(N2CCc3cc(OC)c(Nc4nc(Nc5cccc(F)c5C(N)=O)c5cc[nH]c5n4)cc3C2)CC1` [Example 122, 2-fluoro-6-[(2-{[6-(methyloxy)-2-(1-propyl-4-piperidinyl)-1,2,3,4-tetrahydro-7-isoquinolinyl]amino}-1H-pyrrolo[2,3-d]pyrimidin-4-yl)amino]benzamide], the IC50 was less than 250 nM in the experiment with NCI-H929, greater than 1000 nM in the experiment with Colo205, 100 to 500 nM in experiment [1] and 5.01 to 200 nM against ALK.
Take `COc1cc2c(cc1Nc1nc(Nc3cc4ccccc4cc3C(N)=O)c3cc[nH]c3n1)N(C(=O)CN(C)C)CC2` [Example 124, 3-[(2-{[1-(N,N-dimethylglycyl)-5-(methyloxy)-2,3-dihydro-1H-indol-6-yl]amino}-1H-pyrrolo[2,3-d]pyrimidin-4-yl)amino]-2-naphthalenecarboxamide]: the IC50 is less than 250 nM in the experiment with NCI-H929, less than 250 nM with Colo205, less than 100 nM in experiment [1] and 1.26 to 3.98 nM at ALK.
Regarding `CNC(=O)c1cc2ccccc2cc1Nc1nc(Nc2cc3c(cc2OC)CCN3C(=O)CN(C)C)nc2[nH]ccc12` [Example 125, 3-[(2-{[1-(N,N-dimethylglycyl)-5-(methyloxy)-2,3-dihydro-1H-indol-6-yl]amino}-1H-pyrrolo[2,3-d]pyrimidin-4-yl)amino]-N-methyl-2-naphthalenecarboxamide], the IC50 is less than 250 nM in the experiment with NCI-H929, 250 to 1000 nM in the experiment with Colo205, 100 to 500 nM in experiment [1] and 5.01 to 200 nM against ALK.
The corresponding values for `CCN(C)CC(=O)N1CCCc2cc(OC)c(Nc3nc(Nc4cccc(F)c4C(=O)NC)c4cc[nH]c4n3)cc21` [Example 132, 2-[(2{-[1-(N-ethyl-N-methylglycyl)-6-(methyloxy)-1,2,3,4-tetrahydro-7-quinolinyl]amino}-1H-pyrrolo[2,3-d]pyrimidin-4-yl)amino]-6-fluoro-N-methylbenzamide] are less than 250 nM, less than 250 nM, less than 100 nM and 5.01 to 200 nM.
On to `COc1cc2c(cc1Nc1nc(Nc3cccc(F)c3C(N)=O)c3cc[nH]c3n1)N(C(C)=O)CC2` [Example 134, 2-[(2-{[1-acetyl-5-(methyloxy)-2,3-dihydro-1H-indol-6-yl]amino}-1H-pyrrolo[2,3-d]pyrimidin-4-yl)amino]-6-fluorobenzamide], for which the half-inhibitory concentration (IC50) was less than 250 nM in the experiment with NCI-H929, 250 to 1000 nM in the experiment with Colo205, 100 to 500 nM in experiment [1] and 1.26 to 3.98 nM against ALK.
The corresponding values for `CNC(=O)c1c(F)cccc1Nc1nc(Nc2cc3c(cc2OC)CCN3C(C)=O)nc2[nH]ccc12` [Example 135, 2-[(2-{[1-acetyl-5-(methyloxy)-2,3-dihydro-1H-indol-6-yl]amino}-1H-pyrrolo[2,3-d]pyrimidin-4-yl)amino]-6-fluoro-N-methylbenzamide] are 250 to 1000 nM, greater than 1000 nM, greater than 500 nM and 1.26 to 3.98 nM.
The like results for `CCN(CC)CC(=O)N1CCc2cc(OC)c(Nc3nc(Nc4cccc(F)c4C(=O)NC)c4cc[nH]c4n3)cc21` [Example 137, 2-[(2-{[1-(N,N-diethylglycyl)-5-(methyloxy)-2,3-dihydro-1H-indol-6-yl]amino}-1H-pyrrolo[2,3-d]pyrimidin-4-yl)amino]-6-fluoro-N-methylbenzamide] were, in that order, less than 250 nM, 250 to 1000 nM, 100 to 500 nM and 5.01 to 200 nM.
The corresponding values for `COc1cc2c(cc1Nc1nc(Nc3cccc(F)c3C(N)=O)c3cc[nH]c3n1)NCC2` [Example 140, 2-fluoro-6-[(2-{[5-(methyloxy)-2,3-dihydro-1H-indol-6-yl]amino}-1H-pyrrolo[2,3-d]pyrimidin-4-yl)amino]benzamide] are greater than 1000 nM, 250 to 1000 nM, greater than 500 nM and 5.01 to 200 nM.
For the compound `COc1cc2c(cc1Nc1nc(Nc3cccc(F)c3C(N)=O)c3cc[nH]c3n1)N(C(=O)CN1CCC1)CC2` [Example 143, 2-[(2-{[1-(1-azetidinylacetyl)-5-(methyloxy)-2,3-dihydro-1H-indol-6-yl]amino}-1H-pyrrolo[2,3-d]pyrimidin-4-yl)amino]-6-fluorobenzamide], the IC50 in the experiment on NCI-H929 was less than 250 nM; in the experiment on Colo205, 250 to 1000 nM; in experiment [1] it was 100 to 500 nM; at ALK, 1.26 to 3.98 nM.
The corresponding values for `COc1cc2c(cc1Nc1nc(Nc3cccc(F)c3C(N)=O)c3cc[nH]c3n1)N(C(=O)CN(C)OC)CC2` [Example 144, 2-fluoro-6-[(2-{[1-[N-methyl-N-(methyloxy)glycyl]-5-(methyloxy)-2,3-dihydro-1H-indol-6-yl]amino}-1H-pyrrolo[2,3-d]pyrimidin-4-yl)amino]benzamide] are 250 to 1000 nM, greater than 1000 nM, greater than 500 nM and 5.01 to 200 nM.
The like results for `COc1cc2c(cc1Nc1nc(Nc3cccc(F)c3C(N)=O)c3cc[nH]c3n1)N(C(=O)Cn1ccnc1)CC2` [Example 145, 2-fluoro-6-[(2-{[1-(1H-imidazol-1-ylacetyl)-5-(methyloxy)-2,3-dihydro-1H-indol-6-yl]amino}-1H-pyrrolo[2,3-d]pyrimidin-4-yl)amino]benzamide] were, in that order, greater than 1000 nM, greater than 1000 nM, greater than 500 nM and 5.01 to 200 nM.
As for `COc1cc2c(cc1Nc1nc(Nc3cccc(F)c3C(N)=O)c3cc[nH]c3n1)N(C(=O)N(C)C)CC2` [Example 146, 6-[(4-{[2-(aminocarbonyl)-3-fluorophenyl]amino}-1H-pyrrolo[2,3-d]pyrimidin-2-yl)amino]-N,N-dimethyl-5-(methyloxy)-2,3-dihydro-1H-indole-1-carboxamide], the IC50 in the experiment with NCI-H929 is 250 to 1000 nM; with Colo205 it was greater than 1000 nM; in experiment [1], greater than 500 nM; against ALK, 5.01 to 200 nM.
The like results for `COc1cc2c(cc1Nc1nc(Nc3cccc(F)c3C(N)=O)c3cc[nH]c3n1)N(C(=O)[C@@H]1CCCN1C)CC2` [Example 147, 2-fluoro-6-[(2-{[5-(methyloxy)-1-(1-methyl-L-prolyl)-2,3-dihydro-1H-indol-6-yl]amino}-1H-pyrrolo[2,3-d]pyrimidin-4-yl)amino]benzamide] were, in that order, less than 250 nM, 250 to 1000 nM, 100 to 500 nM and 5.01 to 200 nM.
`COCC(=O)N1CCc2cc(OC)c(Nc3nc(Nc4cccc(F)c4C(N)=O)c4cc[nH]c4n3)cc21` [Example 149, 2-fluoro-6-{[2-({5-(methyloxy)-1-[(methyloxy)acetyl]-2,3-dihydro-1H-indol-6-yl}amino)-1H-pyrrolo[2,3-d]pyrimidin-4-yl]amino}benzamide]: the half-inhibitory concentration (IC50) in the experiment on NCI-H929 is 250 to 1000 nM; in the experiment with Colo205, greater than 1000 nM; in experiment [1], 100 to 500 nM; against ALK, 5.01 to 200 nM.
On to `CNC(=O)c1c(F)cccc1Nc1nc(Nc2cc3c(cc2OC)CCN3C(=O)COC)nc2[nH]ccc12` [Example 150, 2-fluoro-N-methyl-6-{[2-({5-(methyloxy)-1-[(methyloxy)acetyl]-2,3-dihydro-1H-indol-6-yl}amino)-1H-pyrrolo[2,3-d]pyrimidin-4-yl]amino}benzamide], for which the 50% inhibitory concentration (IC50) was 250 to 1000 nM in the experiment on NCI-H929, greater than 1000 nM with Colo205, greater than 500 nM in experiment [1] and 5.01 to 200 nM at ALK.

The record behind these values is US7981903B2, “2-[2-{phenylamino}-1H-pyrrolo[2,3-D]pyrimidin-4-yl)amino] benzamide derivatives as IGF-1R inhibitors for the treatment of cancer” (GlaxoSmithKline LLC, priority 2007, dated 2011).
